Test [1] has as its system Mus musculus. As to the kind of experiment: Effective dose required for anxiolytic activity in mice when administered perorally (Inclined screen test). Conditions: po. It counts as functional.
For test [2], the system named is Mus musculus. As to the kind of experiment: Effective dose required for anxiolytic activity in mice when administered perorally (Antipentylene tetrazole test). It counts as functional. Conditions: po.
In test [3] the test system is Mus musculus. As to the kind of experiment: Effective dose required for anxiolytic activity in mice when administered perorally (Rotarod test). Particulars: po. It counts as functional.
Test [4] addresses GABA-A receptor; anion channel. As to the kind of experiment: Binding affinity measured by [3H]diazepam binding assay in rat.
Test [5] deals with Felis catus. As to the kind of experiment: Minimum effective dose required for drug induced ataxia (observable symptomatology) in cat when administered perorally. It counts as functional. Conditions: po, read-out: MED.
For test [6], the system named is Rattus norvegicus. As to the kind of experiment: Minimum effective dose required for anticonflict effect in rat when administered perorally. It counts as functional. Particulars: po, read-out: MED.
Test [7] relates to Rattus norvegicus. As to the kind of experiment: Lowest dose required for depressant effect (significant decrease in unpunished responding) in rat when administered perorally. It counts as functional.
The subject of test [8] is Mus musculus. As to the kind of experiment: (§1) Effective dose required for ethanol interaction in mouse when administered perorally. It counts as functional. Conditions: po.
The test system of test [9] is Monkey. As to the kind of experiment: Minimum effective dose required for anticonflict effect in monkey when administered perorally. It counts as functional. Particulars: Cercopithecidae, in Primates, po; read-out: MED.
For test [10], the system named is Monkey. As to the kind of experiment: Highest dose required for depressant effect when administered perorally. It counts as functional, Cercopithecidae.
The subject of test [11] is Mus musculus. As to the kind of experiment: Effective dose required for anxiolytic activity in mice when administered perorally ( Rotarod test). Conditions: po. It counts as functional.
Test [12] relates to Felis catus. As to the kind of experiment: Minimum effective dose required for drug induced ataxia (observable symptomatology) in cat when administered perorally. It counts as functional. Conditions: po, read-out: MED.
Test [13] has as its system Mus musculus. The description is as §1. Particulars: po.

On to `Cc1ncc2c(n1)-c1ccc(Cl)cc1C(c1ccccc1Cl)=[N+]([O-])C2`, for which the ED50 in the test on Mus musculus [1] was above 400 mg/kg; in the test on Mus musculus [2] it was 0.72 mg/kg; in the test with Mus musculus [3], 6.3 mg/kg. In [4], the 50% inhibitory concentration (IC50) is 15 nM.

`Nc1ncc2c(n1)-c1ccccc1C(c1ccccc1)=NC2`: in the test on Mus musculus [2], the ED50 was found to be 17 mg/kg. Besides, the 50% inhibitory concentration (IC50) in [4] came out at 60 nM.

Regarding `Cc1ncc2c(n1)-c1ccc(Cl)cc1C(c1ccccc1Cl)N(C)C2` (stereo not drawn), the ED50 in the test on Mus musculus [1] is above 400 mg/kg; with Mus musculus [2], 7.7 mg/kg; with Mus musculus [3] it was 74 mg/kg. Also, the IC50 in test [4] was 25 nM.

On to `Nc1ncc2c(n1)-c1ccc(Cl)cc1C(c1ccccc1Cl)=NC2`, for which the figures for the ED50 with Mus musculus [1], in the test with Mus musculus [2] and in the test with Mus musculus [3] were above 400 mg/kg, 0.07 mg/kg and 1.4 mg/kg, respectively. In test [4], the IC50 came to 2.6 nM.

As for `Fc1ccccc1C1=NCc2cnc(Cl)nc2-c2ccc(Cl)cc21`, the ED50 is above 400 mg/kg in the test with Mus musculus [1], 4.7 mg/kg in the test on Mus musculus [2] and 24 mg/kg in the test on Mus musculus [3]. This compound also returned an IC50 in [4] of 5.3 nM.

Consider `CC1=NCC2CNC(c3ccccc3Cl)c3cc(Cl)ccc3C2=N1` (stereo not drawn), for which the ED50 in the test with Mus musculus [1] was determined as 200 mg/kg; in the test on Mus musculus [2], 34 mg/kg; in the test with Mus musculus [3], 109 mg/kg. In test [4], the IC50 amounted to 140 nM.

`CNC(=O)Cc1ncc2c(n1)-c1ccc(Cl)cc1C(c1ccccc1F)=NC2`: the ED50 in the test on Mus musculus [1] was above 400 mg/kg; in the test on Mus musculus [2], 2.3 mg/kg; in the test on Mus musculus [3] it was 4 mg/kg. In addition, the 50% inhibitory concentration (IC50) in [4] was found to be 7.6 nM.

With `[O-][N+]1=C(c2ccccc2F)c2cc(Cl)ccc2-c2nc(S)ncc2C1`, the results for the 50% effective dose (ED50) in the test with Mus musculus [1], with Mus musculus [2] and with Mus musculus [3] were above 400 mg/kg, above 100 mg/kg and above 200 mg/kg, respectively. In test [4], this compound yielded an IC50 of 490 nM.

For the compound `Cc1nc2c(c[n+]1[O-])C[N+]([O-])=C(c1ccccc1Cl)c1cc(Cl)ccc1-2`, the 50% effective dose (ED50) in the test with Mus musculus [1] came out at 240 mg/kg; in the test on Mus musculus [2], 2.7 mg/kg; in the test with Mus musculus [3], 5.6 mg/kg. In test [4], this compound returned an IC50 of 31 nM.

As to `Cc1ncc2c(n1)-c1ccc(Cl)cc1C(c1ccccc1Cl)NC2` (stereo not drawn), the ED50 in the test with Mus musculus [1] was above 400 mg/kg; with Mus musculus [2] it was 2.3 mg/kg; with Mus musculus [3], 18 mg/kg. Besides, the IC50 in test [4] is 30 nM.

In the case of `[O-][N+]1=C(c2ccccc2Cl)c2cc(Cl)ccc2-c2ncncc2C1`, the median effective dose (ED50) turned out to be 141 mg/kg in the test with Mus musculus [1], 0.87 mg/kg with Mus musculus [2] and 4.9 mg/kg in the test with Mus musculus [3]. In addition, in [4], the half-inhibitory concentration (IC50) was 39 nM.

Turning to `CNc1ncc2c(n1)-c1ccc(Cl)cc1C(c1ccccc1F)=NC2`, the ED50 in the test on Mus musculus [1] was above 400 mg/kg; in the test with Mus musculus [2] it was 0.58 mg/kg; in the test on Mus musculus [3], 4 mg/kg. The same compound gave a half-maximal inhibitory concentration (IC50) in test [4] of 2.8 nM.

Regarding `Cc1ncc2c(n1)-c1ccccc1C(c1ccccc1)=NC2`, the results for the ED50 with Mus musculus [2] and in the test with Mus musculus [3] were 84 mg/kg and 200 mg/kg, respectively. Moreover, the IC50 in test [4] worked out at 54 nM.

For the compound `Nc1ncc2c(n1)-c1ccc(Cl)cc1C(c1ccccc1F)=[N+]([O-])C2`, the IC50 in test [4] was found to be 38 nM.

As for `Fc1ccccc1C1=NCc2cncnc2-c2ccc(Cl)cc21`, the ED50 with Mus musculus [1] was above 400 mg/kg; in the test with Mus musculus [2] it was 0.37 mg/kg; in the test on Mus musculus [3], 0.8 mg/kg. Further, the 50% inhibitory concentration (IC50) in [4] came out at 3.4 nM.

Take `CN1CCN(c2ncc3c(n2)-c2ccc(Cl)cc2C(c2ccccc2F)=NC3)CC1`: the 50% effective dose (ED50) was above 400 mg/kg with Mus musculus [1], 1.2 mg/kg with Mus musculus [2] and 16 mg/kg in the test with Mus musculus [3]. The half-maximal inhibitory concentration (IC50) in test [4] amounted to 7.1 nM.

For the compound `CN(C)CCCNc1ncc2c(n1)-c1ccc(Cl)cc1C(c1ccccc1F)=NC2`, the ED50 was 187 mg/kg with Mus musculus [1], 1.6 mg/kg with Mus musculus [2] and 16 mg/kg in the test with Mus musculus [3]. Besides, in [4], the IC50 is 2.3 nM.

`CSc1ncc2c(n1)-c1ccc(Cl)cc1C(c1ccccc1Cl)=NC2`: the ED50 in the test on Mus musculus [1] was above 400 mg/kg; in the test with Mus musculus [2], 13 mg/kg; in the test on Mus musculus [3], 33 mg/kg. In test [4], this compound gave a half-maximal inhibitory concentration (IC50) of 18.5 nM.

In the case of `Clc1ccc2c(c1)C(c1ccccc1Cl)NCc1cncnc1-2` (stereo not drawn), the ED50 with Mus musculus [1] was above 400 mg/kg; in the test on Mus musculus [2], 6.9 mg/kg; in the test on Mus musculus [3], 22 mg/kg. The IC50 in test [4] was found to be 54 nM.

In the case of `Cc1ncc2c(n1)-c1ccc(Cl)cc1C(c1ccccc1F)=NC2`, the ED50 is above 400 mg/kg in the test with Mus musculus [1], 6.6 mg/kg in the test on Mus musculus [2] and 7.8 mg/kg in the test on Mus musculus [3]. Moreover, the IC50 in test [4] was 3.1 nM.

In the test on Mus musculus [2], `Cc1ncc2c(n1)-c1ccc(Cl)cc1C(c1ccccc1)=NC2` had a median effective dose (ED50) of 9.3 mg/kg. The same compound showed a 50% inhibitory concentration (IC50) in test [4] of 17 nM.

Consider `Clc1ccc2c(c1)C(c1ccccc1Cl)=NCc1cncnc1-2`, for which the minimal effective dose came to 0.5 mg/kg in the test on Felis catus [5], 0.31 mg/kg in the test on Rattus norvegicus [6] and 0.04 mg/kg in the test with Monkey [9]. The 50% effective dose (ED50) in the test on Mus musculus [1] was found to be 215 mg/kg; in the test with Mus musculus [2], 0.59 mg/kg; in the test on Mus musculus [8] it was 2.2 mg/kg; with Mus musculus [3], 3.6 mg/kg. Moreover, the DUR in the test on Rattus norvegicus [7] worked out at 2.5 mg/kg. In the test on Monkey [10], this compound displayed an HED of 5 mg/kg. In [4], the IC50 came to 2.8 nM.

As to `COc1ncc2c(n1)-c1ccc(Cl)cc1C(c1ccccc1F)=NC2`, the ED50 was above 400 mg/kg with Mus musculus [1], 2.6 mg/kg with Mus musculus [2] and 9 mg/kg with Mus musculus [3]. Also, the IC50 in [4] was 3.5 nM.

With `[O-][N+]1=C(c2ccccc2F)c2cc(Cl)ccc2-c2ncncc2C1`, the figures for the ED50 with Mus musculus [1], in the test on Mus musculus [2] and in the test with Mus musculus [3] were 277 mg/kg, 3.9 mg/kg and 3.95 mg/kg, respectively. The compound further gave an IC50 in [4] of 41 nM.

In the case of `Nc1ncc2c(n1)-c1ccc(Cl)cc1C(c1ccccc1F)=NC2`, the ED50 is above 400 mg/kg in the test with Mus musculus [1], 1.1 mg/kg with Mus musculus [2] and 5.1 mg/kg in the test with Mus musculus [3]. The compound further came in with an IC50 in [4] of 2.8 nM.

Turning to `Oc1ncc2c(n1)-c1ccc(Cl)cc1C(c1ccccc1F)=NC2`, the results for the ED50 in the test with Mus musculus [1], in the test on Mus musculus [2] and in the test with Mus musculus [3] were above 400 mg/kg, 6.3 mg/kg and 29 mg/kg, respectively. The compound also had an IC50 in test [4] of 9.6 nM.

As for `Sc1ncc2c(n1)-c1ccc(Cl)cc1C(c1ccccc1Cl)=NC2`, the ED50 is above 400 mg/kg in the test with Mus musculus [1], 18 mg/kg with Mus musculus [2] and 214 mg/kg with Mus musculus [3]. The compound also gave a half-maximal inhibitory concentration (IC50) in test [4] of 270 nM.

For `O=C(O)Cc1ncc2c(n1)-c1ccc(Cl)cc1C(c1ccccc1F)=NC2`, the ED50 in the test with Mus musculus [11] was 30 mg/kg; in the test with Mus musculus [1] it was above 400 mg/kg; in the test with Mus musculus [2], 12 mg/kg. In test [4], this compound gave a half-inhibitory concentration (IC50) of 9.6 nM.

For the compound `CC(C)c1ncc2c(n1)-c1ccc(Cl)cc1C(c1ccccc1Cl)=NC2`, the ED50 is above 400 mg/kg with Mus musculus [1], 3.8 mg/kg with Mus musculus [2] and 21 mg/kg in the test on Mus musculus [3]. Also, in test [4], the 50% inhibitory concentration (IC50) is 25 nM.

Turning to `Nc1ncc2c(n1)-c1ccc(Cl)cc1C(c1ccccc1)=NC2`, the 50% effective dose (ED50) in the test on Mus musculus [1] is above 400 mg/kg; in the test with Mus musculus [2] it was 4.9 mg/kg; with Mus musculus [3], 19 mg/kg. Moreover, the half-inhibitory concentration (IC50) in test [4] was determined as 17 nM.

Consider `Cc1ncc2c(n1)-c1ccc(Cl)cc1C(c1ccccc1Cl)=NC2`, for which the median effective dose (ED50) was above 400 mg/kg in the test with Mus musculus [1], 0.74 mg/kg in the test with Mus musculus [2] and 7.2 mg/kg in the test with Mus musculus [3]. For the same compound, in test [4], the half-maximal inhibitory concentration (IC50) amounted to 9.2 nM.

With `CCOC(=O)Cc1ncc2c(n1)-c1ccc(Cl)cc1C(c1ccccc1F)=NC2`, the ED50 with Mus musculus [2] was 13 mg/kg; in the test on Mus musculus [3], above 200 mg/kg. The compound also registered an IC50 in test [4] of 20 nM.

As for `CN(C)c1ncc2c(n1)-c1ccc(Cl)cc1C(c1ccccc1F)=NC2`, the 50% effective dose (ED50) was above 400 mg/kg with Mus musculus [1], 1.1 mg/kg in the test with Mus musculus [2] and 2.2 mg/kg in the test on Mus musculus [3]. This compound showed an IC50 in [4] of 8.2 nM.

Turning to `CN1C(=O)CN=C(c2ccccc2)c2cc(Cl)ccc21` [DIAZEPAM], the results for the minimal effective dose in the test with Rattus norvegicus [6], in the test on Monkey [9] and in the test on Felis catus [12] were 1.25 mg/kg, 0.31 mg/kg and 0.2 mg/kg, respectively. Further, the ED50 was above 25 mg/kg with Mus musculus [1], 1.4 mg/kg in the test with Mus musculus [2], 3.2 mg/kg in the test on Mus musculus [3] and 0.97 mg/kg in the test on Mus musculus [13]. For the same compound, in the test on Rattus norvegicus [7], the DUR is 20 mg/kg. Moreover, the HED in the test on Monkey [10] came to 20 mg/kg.

These data come from ChEMBL document CHEMBL1122390, “2-benzazepines. 5. Synthesis of pyrimido[5,4-d][2]benzazepines and their evaluation as anxiolytic agents” (J Med Chem, 1983).
